Test results as given in ChEMBL document CHEMBL4619775, “2-Arylbenzo[d]oxazole Phosphinate Esters as Second-Generation Modulators of Utrophin for the Treatment of Duchenne Muscular Dystrophy” (J Med Chem, 2020).
Converted amounts (≈) assume the structure as drawn. One block for each molecule: values may come before it. The source made the active and inactive calls. No cut-off for these calls is given here.

Legend:
[1] = Apparent permeability from apical to basolateral side in human Caco2; details: Caco-2
[2] = Apparent permeability from basolateral to apical side in human Caco2; details: Caco-2
[3] = Stability in mouse hepatocytes assessed as half life
[4] = Intrinsic clearance in mouse hepatocytes assessed per 10^6 cells
[5] = Solubility of compound by turbidimetric assay
[6] = Microsomal stability in human liver microsomes assessed as half life
[7] = Microsomal stability in mouse liver microsomes assessed as half life
[8] = Plasma protein binding in mouse
[9] = Plasma protein binding in human
[10] = Intrinsic clearance in mouse liver microsomes
[11] = Intrinsic clearance in human liver microsomes
[12] = Aqueous kinetic solubility of the compound; details: buffer
[13] = Drug level in rat treated with methyl ethyl(2-(3-(trifluoromethyl)phenyl)benzo[d]oxazol-5-yl)phosphinate assessed as compound formation; type: ADME; details: in vivo
Mus musculus [14] = organism: Mus musculus; assay: Upregulation of utrophin expression in dystrophin-deficient mouse myoblasts at 10 uM after 72 hrs by Western blot analysis; type: functional
[15] = Half life in mdx mouse at 5 mg/kg, po after 1 day; details: in vivo, t1/2
[16] = mouse, in vivo, po, 5 mg/kg, 24 h
[17] = mouse, in vivo, iv, 1 mg/kg
[18] = mouse, in vivo, po, 5 mg/kg, 168 h
[19] = mouse, in vivo, po, 5 mg/kg, 24 h; remark: listed apart in the source
in vivo [20] = details: mdx, mouse, iv, 1 mg/kg
[21] = Volume of distribution in mdx mouse at 1 mg/kg, iv; details: in vivo
Mus musculus [22] = assay: Protection against DMD in mdx C57BL/10 mouse assessed as force drop in extensor digitorum longus muscle at 30 mg/kg, po qd for 5 weeks measured post-last dose (reference value: 44.9%); type: functional
[23] = Drug metabolism in mouse hepatocytes assessed as interconversion to opposite enantiomeric form after 60 mins; details: 1 h
[24] = mouse, in vivo, po, 5 mg/kg, 168 h; remark: listed apart in the source
Mus musculus [25] = assay: Protection against stretch-induced damage in mdx C57BL/10 mouse assessed as improvement in muscle resistance at 30 mg/kg, po qd for 5 weeks; type: functional
in vivo [26] = details: mdx, mouse, po, 5 mg/kg, F
[27] = mouse, in vivo, po, 5 mg/kg, 24 h; remark: listed apart in the source
[28] = Drug metabolism in human hepatocytes assessed as interconversion to opposite enantiomeric form after 60 mins; details: 1 h
Mus musculus [29] = organism: Mus musculus; assay: Upregulation of utrophin expression in dystrophin-deficient mouse myoblasts after 72 hrs by Western blot analysis; type: functional
[30] = mouse, in vivo, po, 5 mg/kg, 168 h; remark: listed apart in the source
[31] = target: 5-hydroxytryptamine receptor 2B (Homo sapiens, UniProt P41595); assay: Antagonist activity at human Gq-coupled 5HT2B receptor expressed in HEK293 cells assessed as inhibition of serotonin-induced calcium mobilization by calcium-sensitive dye based FLIPR assay; type: functional, cell-based
Chain of 5-hydroxytryptamine receptor 2B (P41595 whole entry): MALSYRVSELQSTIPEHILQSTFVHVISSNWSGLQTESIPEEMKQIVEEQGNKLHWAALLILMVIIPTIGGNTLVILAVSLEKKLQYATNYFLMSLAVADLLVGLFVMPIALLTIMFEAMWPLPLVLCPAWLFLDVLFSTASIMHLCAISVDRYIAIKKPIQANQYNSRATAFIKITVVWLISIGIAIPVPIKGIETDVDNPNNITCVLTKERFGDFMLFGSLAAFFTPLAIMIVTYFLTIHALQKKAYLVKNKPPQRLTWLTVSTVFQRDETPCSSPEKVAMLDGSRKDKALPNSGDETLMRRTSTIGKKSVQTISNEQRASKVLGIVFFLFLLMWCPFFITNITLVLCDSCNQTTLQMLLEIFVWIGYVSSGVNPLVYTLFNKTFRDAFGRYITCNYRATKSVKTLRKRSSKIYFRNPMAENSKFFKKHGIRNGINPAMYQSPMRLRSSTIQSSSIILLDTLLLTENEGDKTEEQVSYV

[32] = Drug metabolism in mouse hepatocytes assessed as compound racemization after 60 mins; details: 1 h
[33] = Stability in human hepatocytes assessed as half life after 60 mins
[34] = Drug metabolism in human hepatocytes assessed as compound racemization after 60 mins; details: 1 h
[35] = mouse, in vivo, iv, 1 mg/kg; remark: listed apart in the source
[36] = Intrinsic clearance in human hepatocytes after 60 mins; details: 1 h
[37] = Stability in mouse hepatocytes assessed as half life after 60 mins
[38] = Intrinsic clearance in mouse hepatocytes after 60 mins; details: 1 h

Papp A→B [1]: 6.38 ×10⁻⁶ cm/s
Papp B→A [2]: 3.98 ×10⁻⁶ cm/s
half-life [3]: 0.35 h
hepatocyte CLint [4]: 32.8 µL/min/1e6 cells
SMILES: CCP(=O)(OC1CCC1)c1ccc2oc(-c3cccc(C(F)(F)F)c3)nc2c1 (configuration not stated)

solubility kinetic [5]: > 100 µM
half-life ([6]; liver microsomes): > 17.1 h
half-life ([7]; liver microsomes): 0.45 h
fraction unbound [8]: 0.17
fraction unbound [9]: 0.04
SMILES: COP(=O)(c1ccc2nc(-c3ccc(F)cc3)oc2c1)C(C)C (configuration not stated)

solubility kinetic [5]: 1 to 3 µM (≈ 0.33 to 0.991 µg/mL)
SMILES: CC(C)C(=O)Nc1ccc2oc(-c3ccc4ccccc4c3)nc2c1

solubility kinetic [5]: > 100 µM
microsomal CLint ([10]; liver microsomes): 39.1 µL/min/mg
microsomal CLint ([11]; liver microsomes): 2.41 µL/min/mg
half-life ([6]; liver microsomes): 9.58 h
half-life ([7]; liver microsomes): 0.6 h
fraction unbound [8]: 0.16
fraction unbound [9]: 0.08
SMILES: CCOP(=O)(CC)c1ccc2oc(-c3ccc(F)cc3)nc2c1 (configuration not stated)

solubility kinetic [12]: 337 µM (≈ 120 µg/mL)
Drug uptake [13]: Active
half-life [3]: 4 h
fraction unbound [9]: 0.01
hepatocyte CLint [4]: < 2.89 µL/min/1e6 cells
SMILES: CCP(=O)(O)c1ccc2oc(-c3cccc(C(F)(F)F)c3)nc2c1

Papp A→B [1]: 10.6 ×10⁻⁶ cm/s
Papp B→A [2]: 5.75 ×10⁻⁶ cm/s
half-life [3]: 1.33 h
hepatocyte CLint [4]: 8.65 µL/min/1e6 cells
SMILES: CCP(=O)(OC1CC1)c1ccc2oc(-c3cccc(C(F)(F)F)c3)nc2c1 (configuration not stated)

solubility kinetic [12]: 652 µM (≈ 258 µg/mL)
fraction unbound [8]: 0.01
half-life [3]: 1.3 h
hepatocyte CLint [4]: 8.92 µL/min/1e6 cells
SMILES: CCP(=O)(OC1CC1)c1ccc2nc(-c3cccc(C(F)(F)F)c3)oc2c1 (configuration not stated)

solubility kinetic [5]: > 100 µM
half-life ([7]; liver microsomes): > 73.3 h
fraction unbound [8]: 0.23
fraction unbound [9]: 0.1
SMILES: CCP(=O)(OC)c1ccc2nc(-c3cnc4ccccc4c3)oc2c1 (configuration not stated)

Continued, molecule first:

SMILES: O=S1(=O)CCCN1c1ccc2oc(-c3ccc4ccccc4c3)nc2c1
solubility kinetic [5]: 3 to 10 µM (≈ 1.09 to 3.64 µg/mL)

SMILES: CC(=O)Nc1ccc2oc(-c3ccc4ccccc4c3)nc2c1
solubility kinetic [5]: 3 to 10 µM (≈ 0.907 to 3.02 µg/mL)

SMILES: CCP(=O)(OC)c1ccc2nc(-c3ccc(F)cc3)oc2c1 (configuration not stated)
Activity (Mus musculus [14]): inactive

SMILES: CCP(=O)(OC)c1ccc2oc(-c3ccc(F)cc3)nc2c1 (racemic) [listing 1 of 2 here]
half-life at 24 h [15]: 2.25 h
solubility kinetic [5]: > 100 µM
AUC [16]: 1660 ng·h/mL
AUC [17]: 431 ng·h/mL
AUC [18]: 1160 ng·h/mL
half-life ([6]; microsomes): 6.38 h
Cmax [19]: 734 ng/mL
Cmax (in vivo [20]): 562 ng/mL
Vd ([21]; mdx, Vd): 1.46 L/kg
Activity (Mus musculus [22]): 31.8%
half-life ([7]; microsomes): 1.43 h
Drug metabolism [23]: < 1%
Cmax [24]: 566 ng/mL
PPB [8]: 75%
Activity (Mus musculus [25]): 29%
bioavailability at 168 h (in vivo [26]): 53.7%
F [27]: 77.2%
Drug metabolism [28]: < 1%
fraction unbound ([9]; PPB): 0.12

SMILES: CCP(=O)(OC)c1ccc2oc(-c3ccc(F)cc3)nc2c1 (racemic) [listing 2 of 2 here]
Activity (Mus musculus [29]): Dose-dependent effect

SMILES: CCP(=O)(OC)c1ccc2oc(-c3cccc(C(F)(F)F)c3)nc2c1 (racemic)
Activity (Mus musculus [29]): Dose-dependent effect

SMILES: CCP(=O)(OC)c1ccc2oc(-c3ccc(F)cc3)nc2c1 (single isomer, unassigned; (+))
F [30]: 63.7%
AUC [16]: 1570 ng·h/mL
AUC [17]: 510 ng·h/mL
AUC [18]: 1620 ng·h/mL
Cmax [19]: 542 ng/mL
Activity (Mus musculus [22]): 29.4%
Cmax [24]: 736 ng/mL
PPB [8]: 80%
Activity (Mus musculus [25]): 35%
F [27]: 61.6%
EC50 [31]: 9.3 µM

SMILES: CCP(=O)(OC)c1ccc2oc(-c3ccc(F)cc3)nc2c1 (single isomer, unassigned; (-))
F [30]: 45.4%
AUC [16]: 444 ng·h/mL
AUC [17]: 226 ng·h/mL
AUC [18]: 513 ng·h/mL
Cmax [19]: 352 ng/mL
Vd [21]: 1.58 L/kg
Activity (Mus musculus [22]): 44.4%
Drug metabolism [32]: Metabolite_Notdetected
half-life at 1 h [33]: > 7.67 h
Cmax [24]: 299 ng/mL
PPB [8]: 77%
Drug metabolism [34]: Metabolite_Notdetected
F [27]: 39.4%
Cmax [35]: 477 ng/mL
PPB [9]: 85%
EC50 [31]: 50 µM

SMILES: CCS(=O)(=O)c1ccc2oc(-c3ccc4ccccc4c3)nc2c1 [EZUTROMID]
solubility kinetic [5]: 3 to 10 µM (≈ 1.01 to 3.37 µg/mL)
CLH [36]: 31 µL/min
microsomal CLint ([10]; microsomes): 21 µL/min/mg
microsomal CLint ([11]; microsomes): 14.4 µL/min/mg
half-life ([6]; microsomes): 1.6 h
Drug metabolism [32]: Metabolite_Notdetected
half-life at 1 h [33]: 0.75 h
half-life ([7]; microsomes): 1.1 h
half-life at 1 h [37]: 0.433 h
fraction unbound [8]: < 0.01
Drug metabolism [34]: Metabolite_Notdetected
CLH [38]: 54 µL/min
